According to patent publication US10882835B2 (Imago Biosciences, Inc., priority 2013, dated 2021):
pIC50: −log10 of the molar value.

How the values were obtained:
[1] = Metabolic stability in murine liver microsomes; assay type: in vitro ADME; conditions: mouse liver microsomes, 2 μM compound, NADPH
Protocol: The metabolic stability of compounds disclosed herein in pooled human liver microsomes (HLM) and pooled male mouse liver microsomes (MMLM) was determined according to the following protocol, in which the concentrations of compounds in reaction systems were evaluated by LC/MS/MS for estimating the stability in liver microsomes.
Pooled human liver microsomes (HMMCPL; PL050B) and pooled male mouse liver microsomes (MSMCPL; MS033) were purchased from CellzDirect (Invitrogen). Microsomes were stored at −80 C prior to use.
A master solution was prepared containing microsome (stock concentration 5 mg/mL, volume 50 μL, final concentration 0.5 mg/mL), MgCl2 solution (stock concentration 50 mM, volume 50 μL, final concentration 5 mM), phosphate buffer (stock concentration 200 mM, volume 250 μL, final concentration 100 mM), and water (volume […]. Five μL of 200 μM test compounds or control solution (control compound: verapamil) was then added. The final concentration of test compounds or verapamil in the reaction system was 2 μM. The mixture was pre-warmed at 37 C for 5 min.
The reaction was started with the addition of 50 μL of 10 mM NADPH solution at the final concentration of 1 mM and carried out at 37 C. 50 μL of ultra-pure H2O was used instead of NADPH solution in the negative control.
Aliquots of 50 μL were taken from the reaction solution at 0 and 30 min. The reaction was stopped by the addition of 3 volumes of cold methanol with IS (200 nM imipramine, 200 nM labetalol and 2 μM ketoprofen) at the designated time points. Samples were centrifuged at 16,000 g for 10 minutes to precipitate protein. Aliquot of 100 μL of the supernatant was diluted by 100 μL ultra-pure H2O, and the mixture was used for LC/MS/MS analysis. All experiments were performed in duplicate.
Samples were analyzed using liquid chromatography-mass spectrometry. The LC system comprised a Shimadzu liquid chromatograph separation system equipped with degasser DGU-20A3, solvent delivery unit LC-20AD, system controller CBM-20A, column oven CTO-10ASVP and CTC Analytics HTC PAL System. Chromatographic conditions included a Phenomenex column, 5.0μ C18 (2.0×50 mm); a mobile phase of 0.1% formic acid in acetonitrile and 0.1% formic acid in water; an elution rate of 500 μL/min; column temperature 25 C; injection volume 10 μL. Mass spectrometric analysis was performed using an API 4000 instrument from AB Inc. (Canada) with an ESI interface. The data acquisition and control system were created using Analyst 1.5.1 software from ABI Inc. A turbo spray ion source and electrospray ionization were employed in a multiple reaction monitoring (MRM) scan. Additional parameters included: collision gas, 6 L/min; curtain gas, 30 L/min; nebulize gas, 50 L/min; auxiliary gas, 50 L/min; temperature, 500 C; ionspray voltage, +5500 v (positive MRM). Quadripoles Q1 and Q3 were set to 456.2 and 200.2, respectively; declustering potential (DP), entrance potential (EP), and collision cell entrance potential (CE) were set to 120, 10, and 55 v, respectively; collision cell exit potential (CXP) was 12 v.
All calculations were carried out using Microsoft Excel. Peak areas were determined from extracted ion chromatograms. The control compounds were included in the assay. Any value of the compounds that was not within the specified limits was rejected and the experiment was repeated. The reaction system without the cofactors was used to exclude the misleading factor that resulted from instability of chemical itself.

KDM1A (LSD1) = KDM1A (LSD1) (Homo sapiens (Human), UniProt O60341); experiment: 10-dose IC50 fluorescence coupling enzyme assay, LSD1 demethylase activity on histone H3(1-21)K4me2 peptide (HRP/Amplex Red); assay type: biochemical; conditions: 10 μM histone H3(1-21)K4me2 peptide substrate

% at 30 min, MLM [1] | pIC50 (KDM1A (LSD1)) | Structure (SMILES) | % at 30 min, MLM ([1]; numeric values of Table 2) [%]
+ (+ is ≥20%) | > 6.00 | CN1CCN(C(=O)[C@H](CCCCN[C@@H]2C[C@H]2c2ccccc2)NC(=O)c2ccccc2)CC1 [Example 4, N—((S)-1-(4-methylpiperazin-1-yl)-1-oxo-6-(((1R,2S)-2-phenylcyclopropyl)amino)hexan-2-yl)benzamide] | 
 | > 6.00 | O=C(N[C@@H](CCCCN[C@@H]1C[C@H]1c1ccccc1)C(=O)N1CCCC1)c1ccccc1 [Example 1, N—((S)-1-oxo-6-(((1R,2S)-2-phenylcyclopropyl)amino)-1-(pyrrolidin-1-yl)hexan-2-yl)benzamide] | 
+ (+ is ≥20%) | > 6.00 | CN1CCN(C(=O)[C@H](CCCCN[C@@H]2C[C@H]2c2ccc(F)cc2)NC(=O)c2ccc(F)cc2)CC1 [Example 3, 4-fluoro-N—((S)-6-(((1R,2S)-2-(4-fluorophenyl)cyclopropyl)amino)-1-(4-methylpiperazin-1-yl)-1-oxohexan-2-yl)benzamide] | 
− (− is <20%) |  | O=C(N[C@@H](CCCCN[C@@H]1C[C@H]1c1ccc(F)cc1)C(=O)N1CCCCC1)c1ccc(-c2ccccc2)cc1 [Example 15, N—((S)-6-(((1R,2S)-2-(4-fluorophenyl)cyclopropyl)amino)-1-oxo-1-(piperidin-1-yl)hexan-2-yl)-[1,1′-biphenyl]-4-carboxamide] | 
+ (+ is ≥20%) | > 6.00 | O=C(N[C@@H](CCCCN[C@@H]1C[C@H]1c1ccc(F)cc1)C(=O)N1CCS(=O)(=O)CC1)c1ccccc1 [Example 16, N—((S)-1-(1,1-dioxidothiomorpholino)-6-(((1R,2S)-2-(4-fluorophenyl)cyclopropyl)amino)-1-oxohexan-2-yl)benzamide] | 
+ (+ is ≥20%) | > 6.00 | O=C(N[C@@H](CCCCN[C@@H]1C[C@H]1c1ccccc1)C(=O)N1CCOCC1)c1ccccc1 [Example 6, N—((S)-1-morpholino-1-oxo-6-(((1R,2S)-2-phenylcyclopropyl)amino)hexan-2-yl)benzamide] | 
 | > 6.00 | O=C(N[C@@H](CCCCN[C@@H]1C[C@H]1c1ccc(F)cc1)C(=O)N1CCCCC1)c1cnc[nH]1 [Example 23, N—((S)-6-((1R,2S)-2-(4-fluorophenyl)cyclopropylamino)-1-oxo-1-(piperidin-1-yl)hexan-2-yl)-1H-imidazole-5-carboxamide] | 
− (− is <20%) |  | O=C(CN[C@@H]1C[C@H]1c1ccc(F)cc1)NC[C@H](NC(=O)c1ccc(F)cc1)C(=O)N1CCOCC1 [Example 21, 4-fluoro-N—((S)-3-(2-(((1R,2S)-2-(4-fluorophenyl)cyclopropyl)amino)acetamido)-1-morpholino-1-oxopropan-2-yl)benzamide] | 
+ (+ is ≥20%) | > 6.00 | CN1CCN(C(=O)[C@H](CCCCN[C@@H]2C[C@H]2c2ccc(F)cc2)NC(=O)c2ccccc2)CC1 [Example 12, N—((S)-6-(((1R,2S)-2-(4-fluorophenyl)cyclopropyl)amino)-1-(4-methylpiperazin-1-yl)-1-oxohexan-2-yl)benzamide] | 
 | > 6.00 | CCN(CC)C(=O)[C@H](CCCCN[C@@H]1C[C@H]1c1ccccc1)NC(=O)c1ccccc1 [Example 5] | 
+ (+ is ≥20%) | > 6.00 | CN(C(=O)c1ccccc1)[C@@H](CCCCN[C@]1(C)C[C@H]1c1ccc(F)cc1)C(=O)N1CCN(S(C)(=O)=O)CC1 [Example 27, N-[(2S)-6-[[(1R,2S)-2-(4-fluorophenyl)-1-methylcyclopropyl]amino]-1-(4-methanesulfonylpiperazin-1-yl)-1-oxohexan-2-yl]-N-methylbenzamide] | 
− (− is <20%) | > 6.00 | COc1ccc([C@@H]2C[C@H]2NCCS(=O)(=O)C[C@H](NC(=O)c2ccc(F)cc2)C(=O)N2CCOCC2)cc1 [Example 18, 4-fluoro-N—((R)-3-((2-(((1R,2S)-2-(4-methoxyphenyl)cyclopropyl)amino)ethyl)sulfonyl)-1-morpholino-1-oxopropan-2-yl)benzamide] | 
− (− is <20%) | > 6.00 | O=C(N[C@@H](CCCCN[C@@H]1C[C@H]1c1ccc(F)cc1)C(=O)N1CCCCC1)c1ccc(F)cc1 [Example 13, 4-fluoro-N—((S)-6-(((1R,2S)-2-(4-fluorophenyl)cyclopropyl)amino)-1-oxo-1-(piperidin-1-yl)hexan-2-yl)] | 
− (− is <20%) |  | CS(=O)(=O)N1CCN(C(=O)[C@H](CCCN[C@@H]2C[C@H]2c2ccc(F)cc2)NC(=O)c2ccc(F)cc2)CC1 [Example 29, 4-fluoro-N-[(2S)-5-[[(1R,2S)-2-(4-fluorophenyl)cyclopropyl]amino]-1-(4-methanesulfonylpiperazin-1-yl)-1-oxopentan-2-yl]benzamide] | 
− (− is <20%) | > 6.00 | O=C(N[C@@H](CCCCN[C@@H]1C[C@H]1c1ccc(F)cc1)C(=O)N1CCCCC1)c1ccccc1 [Example 10, N—((S)-6-(((1R,2S)-2-(4-fluorophenyl)cyclopropyl)amino)-1-oxo-1-(piperidin-1-yl)hexan-2-yl)benzamide] | 
− (− is <20%) |  | O=C(N[C@@H](COCCN[C@@H]1C[C@H]1c1ccc(F)cc1)C(=O)N1CCOCC1)c1ccc(F)cc1 [Example 20, 4-fluoro-N—((S)-3-(2-(((1R,2S)-2-(4-fluorophenyl)cyclopropyl)amino)ethoxy)-1-morpholino-1-oxopropan-2-yl)benzamide] | 
+ (+ is ≥20%) | > 6.00 | O=C(N[C@@H](CCCCN[C@@H]1C[C@H]1c1ccc(F)cc1)C(=O)N1CCOCC1)c1ccccc1 [Example 11, N—((S)-6-(((1R,2S)-2-(4-fluorophenyl)cyclopropyl)amino)-1-morpholino-1-oxohexan-2-yl)benzamide] | 
+ (+ is ≥20%) |  | COc1ccc([C@@H]2C[C@H]2NC(=O)COC[C@H](NC(=O)c2ccc(F)cc2)C(=O)N2CCOCC2)cc1 [Example 25, 4-fluoro-N—((S)-3-(2-((1R,2S)-2-(4-methoxyphenyl)cyclopropylamino)-2-oxoethoxy)-1-morpholino-1-oxopropan-2-yl)benzamide] | 
+ (+ is ≥20%) |  | COc1ccc([C@@H]2C[C@H]2NC(=O)CCC[C@H](NC(=O)c2ccc(F)cc2)C(=O)N2CCN(C)CC2)cc1 [Example 26, 4-fluoro-N—((S)-6-((1R,2S)-2-(4-methoxyphenyl)cyclopropylamino)-1-(4-methylpiperazin-1-yl)-1,6-dioxohexan-2-yl)benzamide] | 
+ (+ is ≥20%) |  | CN1CCN(C(=O)[C@H](CCCC(=O)N[C@@H]2C[C@H]2c2ccc(F)cc2)NC(=O)c2ccc(F)cc2)CC1 [Example 24, 4-fluoro-N—((S)-6-((1R,2S)-2-(4-fluorophenyl)cyclopropylamino)-1-(4-methylpiperazin-1-yl)-1,6-dioxohexan-2-yl)benzamide] | 

Structure (SMILES) | % at 30 min, MLM [1] | pIC50 (KDM1A (LSD1)) | % at 30 min, MLM ([1]; numeric values of Table 2) [%]
C[C@@]1(NCCS(=O)(=O)C[C@H](NC(=O)c2ccc(F)cc2)C(=O)N2CCOCC2)C[C@H]1c1ccc(F)cc1 [Example 17, 4-fluoro-N—((R)-3-((2-(((1R,2S)-2-(4-fluorophenyl)-1-methylcyclopropyl)amino)ethyl)sulfonyl)-1-morpholino-1-oxopropan-2-yl)benzamide] | − (− is <20%) | > 6.00 | 2.7
